{"source": "ChEMBL document CHEMBL1687756", "about": "(Antimicrob Agents Chemother, 2010)", "key": {"[1]": {"assay": "Ratio of drug level in spleen to plasma in male Beagle dog at 200 mg/kg administered intramuscularly after 3 months", "type": "ADME, organism-based, Canis lupus familiaris", "set-up": "dose 200 mg/kg, route intramuscular", "settings": "im"}, "[2]": {"assay": "Ratio of drug level in thymus to plasma in male Beagle dog at 200 mg/kg, sc after 3 months", "type": "ADME, organism-based, Canis lupus familiaris", "set-up": "dose 200 mg/kg, route subcutaneous"}, "[3]": {"assay": "Ratio of drug level in thymus to plasma in male Beagle dog at 200 mg/kg administered intramuscularly after 3 months", "type": "ADME, organism-based, Canis lupus familiaris", "set-up": "dose 200 mg/kg, route intramuscular", "settings": "im"}, "[4]": {"assay": "Plasma concentration in Beagle dog at 5 mg/kg administered intramuscularly after 1 month", "type": "ADME, organism-based, Canis lupus familiaris", "set-up": "dose 5 mg/kg, route intramuscular", "settings": "im"}, "[5]": {"assay": "Plasma concentration in Beagle dog at 5 mg/kg, sc after 6 months", "type": "ADME, organism-based, Canis lupus familiaris", "set-up": "dose 5 mg/kg, route subcutaneous"}, "[6]": {"assay": "Drug level in Beagle dog liver at 5 mg/kg administered intramuscularly after 6 months", "type": "ADME, organism-based, Canis lupus familiaris", "set-up": "dose 5 mg/kg, route intramuscular", "settings": "im, read-out: Drug uptake"}, "[7]": {"assay": "Drug level in Beagle dog lymph node iliac at 5 mg/kg administered intramuscularly after 3 months", "type": "ADME, organism-based, Canis lupus familiaris", "set-up": "dose 5 mg/kg, route intramuscular", "settings": "im, read-out: Drug uptake"}, "[8]": {"assay": "Ratio of drug level in lymph node iliac to plasma in Beagle dog at 5 mg/kg, sc after 1 month", "type": "ADME, organism-based, Canis lupus familiaris", "set-up": "dose 5 mg/kg, route subcutaneous"}, "[9]": {"assay": "Ratio of drug level in lymph node popliteal to plasma in Beagle dog at 5 mg/kg, sc after 1 month", "type": "ADME, organism-based, Canis lupus familiaris", "set-up": "dose 5 mg/kg, route subcutaneous"}, "[10]": {"assay": "Drug level in Beagle dog lymph node axillar at 5 mg/kg administered intramuscularly after 3 months", "type": "ADME, organism-based, Canis lupus familiaris", "set-up": "dose 5 mg/kg, route intramuscular", "settings": "axillary lymph node, im, read-out: Drug uptake"}, "[11]": {"assay": "Drug level in Beagle dog lymph node axillar at 5 mg/kg, sc after 3 months", "type": "ADME, organism-based, Canis lupus familiaris", "set-up": "dose 5 mg/kg, route subcutaneous", "settings": "axillary lymph node, read-out: Drug uptake"}, "[12]": {"assay": "Drug level in Beagle dog lymph node axillar at 5 mg/kg, sc after 6 months", "type": "ADME, organism-based, Canis lupus familiaris", "set-up": "dose 5 mg/kg, route subcutaneous", "settings": "axillary lymph node, read-out: Drug uptake"}, "[13]": {"assay": "Drug level in Beagle dog lymph node mandibular at 5 mg/kg administered intramuscularly after 3 months", "type": "ADME, organism-based, Canis lupus familiaris", "set-up": "dose 5 mg/kg, route intramuscular", "settings": "im, read-out: Drug uptake"}, "[14]": {"assay": "Drug level in Beagle dog lymph node mandibular at 5 mg/kg, sc after 3 months", "type": "ADME, organism-based, Canis lupus familiaris", "set-up": "dose 5 mg/kg, route subcutaneous", "settings": "read-out: Drug uptake"}, "[15]": {"assay": "Ratio of drug level in thymus to plasma in Beagle dog at 5 mg/kg, sc after 6 months", "type": "ADME, organism-based, Canis lupus familiaris", "set-up": "dose 5 mg/kg, route subcutaneous"}, "[16]": {"assay": "Plasma concentration in male Beagle dog at 400 mg/kg administered intramuscularly after 1 month", "type": "ADME, organism-based, Canis lupus familiaris", "set-up": "dose 400 mg/kg, route intramuscular", "settings": "im"}, "[17]": {"assay": "Drug level in male Beagle dog spleen at 400 mg/kg administered intramuscularly after 1 month", "type": "ADME, organism-based, Canis lupus familiaris", "set-up": "dose 400 mg/kg, route intramuscular", "settings": "im, read-out: Drug uptake"}, "[18]": {"assay": "Plasma concentration in female Beagle dog at 200 mg/kg, sc after 1 month", "type": "ADME, organism-based, Canis lupus familiaris", "set-up": "dose 200 mg/kg, route subcutaneous", "settings": "read-out: Drug uptake"}, "[19]": {"assay": "Drug level in female Beagle dog spleen at 400 mg/kg, sc after 1 month", "type": "ADME, organism-based, Canis lupus familiaris", "set-up": "dose 400 mg/kg, route subcutaneous", "settings": "read-out: Drug uptake"}, "[20]": {"assay": "Drug level in female Beagle dog thymus at 400 mg/kg administered intramuscularly after 1 month", "type": "ADME, organism-based, Canis lupus familiaris", "set-up": "dose 400 mg/kg, route intramuscular", "settings": "im, read-out: Drug uptake"}, "[21]": {"assay": "Ratio of drug level in thymus to plasma in female Beagle dog at 200 mg/kg, sc after 3 months", "type": "ADME, organism-based, Canis lupus familiaris", "set-up": "dose 200 mg/kg, route subcutaneous"}, "[22]": {"test_system": "Canis familiaris", "assay": "Toxicity in Beagle dog assessed as white deposits at 20 mg/kg, sc after 3 months", "type": "organism-based, Canis lupus familiaris", "set-up": "dose 20 mg/kg, route subcutaneous", "settings": "in vivo, 2191.5 h"}, "[23]": {"assay": "Cmax in male dog at 200 mg, sc after 29 days", "settings": "in vivo"}, "[24]": {"assay": "Cmax in male dog at 200 mg, sc after 85 days", "settings": "in vivo"}, "[25]": {"assay": "AUC (0 to last) in female dog at 200 mg, sc after 29 days", "settings": "plasma"}, "[26]": {"assay": "Cmax in female dog at 400 mg administered intramuscularly after 85 days", "settings": "in vivo, im"}, "[27]": {"assay": "AUC (0 to last) in male dog at 400 mg administered intramuscularly after 29 days", "settings": "plasma, im"}, "[28]": {"assay": "AUC (0 to last) in male dog at 200 mg administered intramuscularly after 85 days", "settings": "plasma, im"}}, "data": [{"compound": "Cc1cc(/C=C/C#N)cc(C)c1Nc1ccnc(Nc2ccc(C#N)cc2)n1", "note": "[RILPIVIRINE]", "values": [{"measurement": "Kp at 2191.5 h", "setting": "[1]", "value": 2.7}, {"measurement": "Kp at 2191.5 h", "setting": "[2]", "value": 5.9}, {"measurement": "Kp at 2191.5 h", "setting": "[3]", "value": 3.8}, {"measurement": "concentration at 730.5 h", "setting": "[4]", "value": 11.3, "unit": "ng/mL"}, {"measurement": "concentration at 4383 h", "setting": "[5]", "value": 1.3, "unit": "ng/mL"}, {"measurement": "concentration at 4383 h", "setting": "[6]", "value": 11.6, "unit": "ng/g"}, {"measurement": "concentration at 2191.5 h", "setting": "[7]", "value": 15.3, "unit": "ng/g"}, {"measurement": "Kp at 730.5 h", "setting": "[8]", "value": 3.9}, {"measurement": "Kp at 730.5 h", "setting": "[9]", "value": 4.1}, {"measurement": "concentration at 2191.5 h", "setting": "[10]", "value": 25.5, "unit": "ng/g"}, {"measurement": "concentration at 2191.5 h", "setting": "[11]", "value": 22.1, "unit": "ng/g"}, {"measurement": "concentration at 4383 h", "setting": "[12]", "value": 8.6, "unit": "ng/g"}, {"measurement": "concentration at 2191.5 h", "setting": "[13]", "value": 10, "unit": "ng/g"}, {"measurement": "concentration at 2191.5 h", "setting": "[14]", "value": 13.1, "unit": "ng/g"}, {"measurement": "Kp at 4383 h", "setting": "[15]", "value": 16}, {"measurement": "concentration at 730.5 h", "setting": "[16]", "value": 158, "unit": "ng/mL"}, {"measurement": "concentration at 730.5 h", "setting": "[17]", "value": 347, "unit": "ng/g"}, {"measurement": "concentration at 730.5 h", "setting": "[18]", "value": 71.8, "unit": "ng/g"}, {"measurement": "concentration at 730.5 h", "setting": "[19]", "value": 285, "unit": "ng/g"}, {"measurement": "concentration at 730.5 h", "setting": "[20]", "value": 676, "unit": "ng/g"}, {"measurement": "Kp at 2191.5 h", "setting": "[21]", "value": 4}, {"measurement": "Activity", "setting": "[22]", "value": "Non-toxic"}, {"measurement": "Cmax", "setting": "[23]", "value": 119, "unit": "ng/mL"}, {"measurement": "Cmax", "setting": "[24]", "value": 107, "unit": "ng/mL"}, {"measurement": "AUC(0-t) at 696 h", "setting": "[25]", "value": 70.6, "unit": "µg·h/mL"}, {"measurement": "Cmax", "setting": "[26]", "value": 5260, "unit": "ng/mL"}, {"measurement": "AUC(0-t) at 696 h", "setting": "[27]", "value": 188, "unit": "µg·h/mL"}, {"measurement": "AUC(0-t) at 2040 h", "setting": "[28]", "value": 148, "unit": "µg·h/mL"}]}]}
